≈ marks a conversion by molar mass, not a printed value.
Key:
B. cinerea = test: In vitro mycelium growth inhibition test; assay type: cell-based; details: Botrytis cinerea; 50 μg/mL; mycelial growth; mean ± SD of three replicates; read-out: Inhibition Rate (%) B. cinerea
Experimental: (§1) B. cinerea and S. scleotiorum were kindly provided by the Department of Pesticides, College of Plant Protection, Nanjing Agricultural University (Nanjing, China). All compounds were evaluated for mycelium growth inhibition tests against the two plant pathogenic fungi mentioned in previous reports. These two fungi were inoculated on potato dextrose agar (PDA) plates and were grown in biochemical incubators at 25 ± 1 °C for 2–4 days. The new mycelium was used to determine the antifungal activity. The target compounds were dissolved in 100 µL DMF, and they were then added into the PDA media to make the concentration 50 µg/mL. Mycelia dishes of about 5 mm in diameter were cut from the culture medium. Mycelium were picked up with a sterile inoculation needle, and the sample was inoculated in the middle of a PDA plate in a sterile environment. Afterwards, a preliminary screening of fungal activity was performed. […] Each test was carried out three times. The radial growth of the fungal colonies was gauged and recorded when the diameters of the blank control mycelia reached 5.0–5.5 cm. […] The final data were analyzed using SPSS v.25.0 (IBM, New York, NY, USA). The following formula was used to calculate the fungi inhibition rate. Inhibition rate (%) = [(Mycelium diameter of negative control − Mycelium diameter of treatment)/(Mycelium diameter of negative control − 0.5)] × 100%(1)

S. sclerotiorum [1] = test: In vitro mycelium growth inhibition test; assay type: cell-based; details: Sclerotinia sclerotiorum, mycelial growth, mean ± SD of three replicates
Experimental: as §1

MTT cytotoxicity assay = assay type: cell-based; details: human, L-02 normal liver cells, L-02 cells
Experimental: The human liver L-02 cells were obtained from the biology laboratory in Key Laboratory of Chemistry for Natural Products of Guizhou Province and Chinese Academy of Sciences (Guiyang, China). The cells were grown in Dulbecco’s Modified Eagle’s Medium (supplemented with 10% (v/v) FBS, 100 U/mL penicillin, and 100 μg/mL streptomycin) at 37 °C in a CO2 incubator (5% CO2 and 95% air, 95% humidity). The effect of some compounds on cell viability was determined with the MTT assay according to the previously published literature. A total of 5000 cells were inoculated in a 96-well plate and three wells of each concentration of test compound were used. A total of 24 h after inoculation, the cells had grown to ~60% confluency, and different concentrations of compounds were added, and then the cells were cultured for 48 h. DMSO was used as the control. A total of 20 μL of MTT solution was added to each well and incubated at 37 °C for 4 h. Formazan crystals were dissolved in 150 μL of DMSO and quantified using a microplate reader (Thermo Scientific, Vario Skan Flash, Shanghai Bio-Gene Technology Co., LTD, Shanghai, China) at 490 nm. The cytotoxicity was calculated according to following formula:Cytotoxicity (%) = [(OCK − OT)/OCK] × 100%(2) where OCK represents the optical density (OD) value of the blank control group, and OT represents the OD value of experimental group.

S. sclerotiorum [2] = test: In vivo curative activity assay on infected cole leaves; design: species or system Sclerotinia sclerotiorum; details: sprayed 24 h after inoculation, 72 h
Source text: (§2) Susceptible cole leaves collected from Guizhou Academy of Agricultural Sciences were used to determine the in vivo efficacy of F15 according to previous literature. […] Vaccination time was used to distinguish between the protective activity assays and curative activity assays. A 5 mm mycelia dish was placed at the widest center of the cole leaf, and it was ensured that it was not placed on the main vein of the leaf. For the protective activity assay, test compounds with different concentrations were sprayed on the leaves until the liquid reached the surface. Inoculation was conducted after 24 h. For the curative activity assay, which took place 24 h after inoculation, compounds of different concentrations were sprayed on the surfaces of the leaves until the liquid flowed. Fluopyram and sterile distilled water were used as a positive control and negative control, respectively. All of the inoculated leaves were placed inside of a 25 °C light incubator with 85% relative humidity and a 16 h photoperiod for disease development. The average diameters of the lesions were measured using the cross method after 72 h. The disease control efficacy was obtained through the following formula:Control efficacy (%) = (1 − DT/DCK) × 100%(4) where DCK represents the lesion diameter of the sterile distilled water control, and DT represents the lesion diameters of the treatment samples. Each test was carried out five times, and the experiment was performed three times.

S. sclerotiorum [3] = test: In vivo protective activity assay on infected cole leaves; design: species or system Sclerotinia sclerotiorum; details: sprayed 24 h before inoculation, 72 h
Source text: as §2

A. besseyi = test: microbe, parasite or virus in culture; details: Aphelenchoides besseyi, 48 h, read-out: Corrected Mortality Rate ± SD (%) A. besseyi
Source text: (§3) M. incognita (parasitic on tomato plants), A. besseyi (potato dextrose agar–Botrytis cinerea breeding), B. xylophilus (potato dextrose agar–Botrytis cinerea breeding), and C. elegans (nematode growth medium–inactivated Escherichia coli OP50 cultivation) were provided by the Fine Chemical Research and Development Center of Guizhou University (Guizhou, China). The methodology used for the nematocidal bioassays of these target compounds was modified in the light of the conventional methods reported in the previously published literature. The nematicidal activity of the target compounds against four nematodes was determined using 48-well biochemical culture dishes. All of the compounds were dissolved with 100 μL DMF and were diluted with 1% Tween-80 to obtain 200 and 50 μg/mL concentrations for the bioassays. Fosthiazate and tioxazafen were used as positive controls at the same concentrations, and a negative control group was prepared without compounds using the same methodology. An amount of 10 µL of nematode suspension (about 50 nematodes) and 300 µL of the trial solution were added to corresponding hole, and each treatment was set to three repetitions. All of the 48-well plates were placed in a biochemical incubator at 27 °C for dark light culture. […] Corrected mortality (%) = [(mortality of treatment % − mortality of negative control %)/(1 − mortality of negative control %)] × 100%(3)

B. xylophilus = test: microbe, parasite or virus in culture; details: Bursaphelenchus xylophilus, 48 h, read-out: Corrected Mortality Rate ± SD (%) B. xylophilus
Source text: as §3

C. elegans = test: microbe, parasite or virus in culture; details: Caenorhabditis elegans, 48 h, read-out: Corrected Mortality Rate ± SD (%) C. elegans
Source text: as §3

M. incognita = test: microbe, parasite or virus in culture; details: Meloidogyne incognita, 48 h, read-out: Corrected Mortality Rate ± SD (%) M. incognita
Source text: as §3

Work on `O=C(NCCc1ncc(C(F)(F)F)cc1Cl)c1ccccc1C(F)(F)F` [Fluopyram, fluopyram, reference compound] yielded an inhibition at 50 µg/mL (B. cinerea) of 87.3 ± 0.6%, an inhibition at 50 µg/mL (S. sclerotiorum [1]; 50 μg/mL, read-out: Inhibition Rate (%) S. sclerotiorum) of 93.7 ± 1.7% and an EC50 (S. sclerotiorum [1]; read-out: EC50 against S. sclerotiorum) of 1.2 ± 1.6 µg/mL (≈ 3.02 µM). The cytotoxicity at 48 h, 50 μg/mL (MTT cytotoxicity assay; 50 μg/mL) was 3.8 ± 2.5%, the cytotoxicity at 48 h, 100 μg/mL (MTT cytotoxicity assay; 100 μg/mL) was 40.1 ± 1.2% and the cytotoxicity at 48 h, 200 μg/mL (MTT cytotoxicity assay; 200 μg/mL) was 55.1 ± 0.4%. For the same compound, the “Curative Effect Control Efficacy (%)” value (S. sclerotiorum [2]; 25 μg/mL) was 65.0%, the “Curative Effect Lesion Length” value (S. sclerotiorum [2]; 25 μg/mL) was 7.7 ± 0.6 mm and the “Curative Effect Control Efficacy (%)” value (S. sclerotiorum [2]; 50 μg/mL) was 71.4%. For the same compound, the “Curative Effect Lesion Length” value (S. sclerotiorum [2]; 50 μg/mL) was 6.3 ± 0.2 mm, the “Curative Effect Control Efficacy (%)” value (S. sclerotiorum [2]; 100 μg/mL) was 74.1% and the “Curative Effect Lesion Length” value (S. sclerotiorum [2]; 100 μg/mL) was 5.7 ± 0.6 mm. For the same compound, the “Protective Effect Control Efficacy (%)” value (S. sclerotiorum [3]; 25 μg/mL) was 66.8%, the “Protective Effect Lesion Length” value (S. sclerotiorum [3]; 25 μg/mL) was 7.9 ± 0.1 mm and the “Protective Effect Control Efficacy (%)” value (S. sclerotiorum [3]; 50 μg/mL) was 69.3%. The “Protective Effect Lesion Length” value (S. sclerotiorum [3]; 50 μg/mL) was 7.3 ± 0.2 mm, the “Protective Effect Control Efficacy (%)” value (S. sclerotiorum [3]; 100 μg/mL) was 75.6% and the “Protective Effect Lesion Length” value (S. sclerotiorum [3]; 100 μg/mL) was 5.8± 0.1 mm. It also gave a mortality at 50 µg/mL (A. besseyi) of 100%, a mortality at 200 µg/mL (A. besseyi) of 100% and a mortality at 50 µg/mL (B. xylophilus) of 100%. The mortality at 200 µg/mL (B. xylophilus) was 100%, the mortality at 50 µg/mL (C. elegans) was 100% and the mortality at 200 µg/mL (C. elegans) was 100%. For the same compound, the mortality at 50 µg/mL (M. incognita) was 100% and the mortality at 200 µg/mL (M. incognita) was 100%.

— publication PMC8836147, “Design, Synthesis and Antifungal/Nematicidal Activity of Novel 1,2,4-Oxadiazole Derivatives Containing Amide Fragments” (International Journal of Molecular Sciences, 2022)
